According to patent US10766869B2, “Triazoles for the treatment of demyelinating dieases” (Vertex Pharmaceuticals Incorporated, priority 2015, dated 2020):
Like-named read-outs stand apart in the source and are kept apart here.

System: primary rat mixed cortical cells
Assay: In vitro myelination assay (MBP positive myelin strands, fold myelin pixels above background)
Assay type: cell-based
Details: Rattus norvegicus; for fold induction at 1 µM: 1.0 μM compound; for fold induction at 10 µM: 10.0 μM compound
Procedure, shortened: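 Compounds at 1.0 and 10.0 μM were incubated 14 days with dissociated P1 rat cortical cells, which were then fixed and immunostained for MBP. Myelination was scored as fold MBP myelin pixels per well over the no-compound baseline.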

[1] = read-out: Fold myelin pixels above background relative to baseline of no added compound
[2] = relative to baseline of no added compound, read-out: Fold myelin pixels above background, 1.0 μM
[3] = relative to baseline of no added compound, read-out: Fold myelin pixels above background, 10.0 μM
[4] = relative to baseline of no added compound, read-out: Fold myelin pixels above background

| Structure (SMILES) | fold induction at 1 µM [2] | fold induction at 10 µM [3] | fold induction at 1 µM [4] | fold induction at 10 µM [4] | other results |
| --- | --- | --- | --- | --- | --- |
| Cc1cc(Nc2ncn(-c3cc(F)cc(F)c3)n2)nc(N2CC3CCOC3C2)c1 (stereo not shown) [Compound 843, 6-(2,3,3a,4,6,6a-hexahydrofuro[2,3-c]pyrrol-5-yl)-N-[1-(3,5-difluorophenyl)-1,2,4-triazol-3-yl]-4-methyl-pyridin-2-amine] | – | – | – | – | fold induction at 1 µM [1]: 1 to 10; fold induction at 10 µM [1]: 1 to 10 |
| Cc1cc(Nc2ncn(-c3ccncn3)n2)cc(N2CCN(C3COC3)CC2)c1 [Compound 174, N-[3-methyl-5-[4-(oxetan-3-yl)piperazin-1-yl]phenyl]-1-pyrimidin-4-yl-1,2,4-triazol-3-amine] | 1 to 10 | 10 to 100 | – | – | – |
| Cc1cc(Nc2ncn(-c3cc(F)cc(F)c3)n2)cc(C2CCN(C)CC2)c1 [Compound 151, 1-(3,5-difluorophenyl)-N-[3-methyl-5-(1-methyl-4-piperidyl)phenyl]-1,2,4-triazol-3-amine] | 10 to 100 | ≤ 1 | – | – | – |
| Fc1cc(F)cc(-n2cnc(Nc3cc(N4CCN(C5COC5)CC4)cc(N4CC(N5CCOCC5)C4)c3)n2)c1 [Compound 701, 1-(3,5-difluorophenyl)-N-[3-(3-morpholinoazetidin-1-yl)-5-[4-(oxetan-3-yl)piperazin-1-yl]phenyl]-1,2,4-triazol-3-amine] | – | – | 10 to 100 | ≤ 1 | – |
| Cc1cc(Nc2ncn(-c3cc(C)ncn3)n2)cc(N2CCN(C3COC3)CC2)c1 [Compound 111, N-[3-methyl-5-[4-(oxetan-3-yl)piperazin-1-yl]phenyl]-1-(6-methylpyrimidin-4-yl)-1,2,4-triazol-3-amine] | 10 to 100 | 100 to 1000 | – | – | – |
| Cc1cc(Nc2ncn(-c3cc(F)cc(F)c3)n2)cc(N2CCN(C(C)(C)C)CC2)c1 [Compound 709, N-[3-(4-tert-butylpiperazin-1-yl)-5-methyl-phenyl]-1-(3,5-difluorophenyl)-1,2,4-triazol-3-amine] | – | – | 1 to 10 | 1 to 10 | – |
| Cc1cc(Nc2ncn(-c3cc(F)cc(F)c3)n2)cc(NC2CCCC2N2CCOCC2)c1 (stereo not shown) [Compound 912, N3-[1-(3,5-difluorophenyl)-1,2,4-triazol-3-yl]-5-methyl-N1-(2-morpholinocyclopentyl)benzene-1,3-diamine] | – | – | – | – | fold induction at 1 µM [1]: 1 to 10; fold induction at 10 µM [1]: 1 to 10 |
| COc1cc(OC)cc(-n2cnc(Nc3cc(C4CC4)nc(N4CC[C@@H](F)C4)c3)n2)c1 [Compound 245, 2-cyclopropyl-N-[1-(3,5-dimethoxyphenyl)-1,2,4-triazol-3-yl]-6-[(3R)-3-fluoropyrrolidin-1-yl]pyridin-4-amine] | 1 to 10 | 10 to 100 | – | – | – |
| CN1CCN(c2cc(Nc3ncn(-c4ccc(F)c(F)c4)n3)cc(Cl)n2)CC1 [Compound 477, 2-chloro-N-[1-(3,4-difluorophenyl)-1,2,4-triazol-3-yl]-6-(4-methylpiperazin-1-yl)pyridin-4-amine] | – | – | 10 to 100 | ≤ 1 | – |
| Cc1cc(Nc2ncn(-c3ccc(F)c(F)c3)n2)cc(N2CCN(C3COC3)CC2)c1 [Compound 386, 1-(3,4-difluorophenyl)-N-[3-methyl-5-[4-(oxetan-3-yl)piperazin-1-yl]phenyl]-1,2,4-triazol-3-amine] | – | – | 100 to 1000 | 1000 to 10000 | – |
| CCOCC(O)CN1CCN(c2cc(C)cc(Nc3ncn(-c4cc(F)cc(F)c4)n3)c2)CC1 (stereo not shown) [Compound 900, 1-[4-[3-[[1-(3,5-difluorophenyl)-1,2,4-triazol-3-yl]amino]-5-methyl-phenyl]piperazin-1-yl]-3-ethoxy-propan-2-ol] | – | – | – | – | fold induction at 1 µM [1]: 1 to 10; fold induction at 10 µM [1]: ≤ 1 |
| Cc1cc(Nc2ncn(-c3cc(F)cc(F)c3)n2)cc(N2CC(N3CCOC[C@H]3C)C2)c1 [Compound 670, 1-(3,5-difluorophenyl)-N-[3-methyl-5-[3-[(3R)-3-methylmorpholin-4-yl]azetidin-1-yl]phenyl]-1,2,4-triazol-3-amine] | – | – | 10 to 100 | 10 to 100 | – |
| Cc1cc(Nc2ncn(-c3cc(F)cc(F)c3)n2)cc(N2CCN(C)CC2)n1 [Compound 365, N-[1-(3,5-difluorophenyl)-1,2,4-triazol-3-yl]-2-methyl-6-(4-methylpiperazin-1-yl)pyridin-4-amine] | 10 to 100 | ≤ 1 | – | – | – |
| Cc1cc(Nc2ncn(-c3cc(F)cc(F)c3)n2)cc(N2CCC3OCCC3C2)c1 (stereo not shown) [Compound 528, N-[3-(3,3a,4,6,7,7a-hexahydro-2H-furo[3,2-c]pyridin-5-yl)-5-methyl-phenyl]-1-(3,5-difluorophenyl)-1,2,4-triazol-3-amine] | – | – | 100 to 1000 | 100 to 1000 | – |
| Fc1ccc(-n2cnc(Nc3cc(C4CCOCC4)nc(C4CC4)c3)n2)cc1F [Compound 150, 2-cyclopropyl-N-(1-(3,4-difluorophenyl)-1H-1,2,4-triazol-3-yl)-6-(tetrahydro-2H-pyran-4-yl)pyridin-4-amine] | 1000 to 10000 | ≤ 1 | – | – | – |
| Cc1cc(Nc2ncn(-c3cc(F)cc(F)c3)n2)cc(C2COC2)c1 [Compound 131, 1-(3,5-difluorophenyl)-N-[3-methyl-5-(oxetan-3-yl)phenyl]-1,2,4-triazol-3-amine] | 10 to 100 | 1000 to 10000 | – | – | – |
| Cc1cc(Nc2ncn(-c3ccc(F)c(F)c3)n2)nc(N2CC(N3CCOCC3)C2)c1 [Compound 501, N-[1-(3,4-difluorophenyl)-1,2,4-triazol-3-yl]-4-methyl-6-(3-morpholinoazetidin-1-yl)pyridin-2-amine] | – | – | 1 to 10 | ≤ 1 | – |
| Cc1cc(Nc2ncn(-c3ccc(F)cc3)n2)cc(N2CCN(C3(C)COC3)CC2)c1 [Compound 695, 1-(4-fluorophenyl)-N-[3-methyl-5-[4-(3-methyloxetan-3-yl)piperazin-1-yl]phenyl]-1,2,4-triazol-3-amine] | – | – | 1 to 10 | 1 to 10 | – |
| Cc1cc(Nc2ncn(-c3cc(F)cc(F)c3)n2)cc(N2CCC(N(C)C)CC2)c1 [Compound 948, 1-[3-[[1-(3,5-difluorophenyl)-1,2,4-triazol-3-yl]amino]-5-methyl-phenyl]-N,N-dimethyl-piperidin-4-amine] | – | – | – | – | fold induction at 1 µM [1]: 10 to 100; fold induction at 10 µM [1]: ≤ 1 |
| CC(C)Oc1cc(Nc2ncn(-c3cc(F)cc(F)c3)n2)cc(N2CC(N3CCOCC3)C2)c1 [Compound 830, 1-(3,5-difluorophenyl)-N-[3-isopropoxy-5-(3-morpholinoazetidin-1-yl)phenyl]-1,2,4-triazol-3-amine] | – | – | – | – | fold induction at 1 µM [1]: 100 to 1000; fold induction at 10 µM [1]: 10 to 100 |
| Cc1cc(Nc2ncn(-c3ccccc3)n2)cc(N2CCNCC2)c1 [Compound 159, N-(3-methyl-5-piperazin-1-yl-phenyl)-1-phenyl-1,2,4-triazol-3-amine] | 1000 to 10000 | ≤ 1 | – | – | – |
| Cc1cc(Nc2ncn(-c3ccccc3)n2)cc(Nc2ncc(C)s2)c1 [Compound 588, 5-methyl-N1-(5-methylthiazol-2-yl)-N3-(1-phenyl-1,2,4-triazol-3-yl)benzene-1,3-diamine] | – | – | 10 to 100 | ≤ 1 | – |
| CC(=O)N1CCN(c2cc(C(F)(F)F)cc(Nc3ncn(-c4cc(F)cc(F)c4)n3)n2)CC1 [Compound 555, 1-[4-[6-[[1-(3,5-difluorophenyl)-1,2,4-triazol-3-yl]amino]-4-(trifluoromethyl)-2-pyridyl]piperazin-1-yl]ethanone] | – | – | 10 to 100 | 100 to 1000 | – |
| COCc1cc(-n2cnc(Nc3cc(C4CC4)cc(N4CCN(C5COC5)CC4)c3)n2)ncn1 [Compound 353, N-[3-cyclopropyl-5-[4-(oxetan-3-yl)piperazin-1-yl]phenyl]-1-[6-(methoxymethyl)pyrimidin-4-yl]-1,2,4-triazol-3-amine] | 1000 to 10000 | 100 to 1000 | – | – | – |
| CC(=O)N1CC(Oc2cc(C)c(C)c(Nc3ncn(-c4cc(F)cc(F)c4)n3)c2)C1 [Compound 971, 1-[3-[3-[[1-(3,5-difluorophenyl)-1,2,4-triazol-3-yl]amino]-4,5-dimethyl-phenoxy]azetidin-1-yl]ethanone] | – | – | – | – | fold induction at 1 µM [1]: 1 to 10; fold induction at 10 µM [1]: 1 to 10 |
| COC(=O)N1CCCC(c2cc(C)cc(Nc3ncn(-c4ccccc4)n3)c2)C1 (stereo not shown) [Compound 143, methyl 3-[3-methyl-5-[(1-phenyl-1,2,4-triazol-3-yl)amino]phenyl]piperidine-1-carboxylate] | 1000 to 10000 | 1000 to 10000 | – | – | – |
| CCOC1CCN(c2cc(C)cc(Nc3ncn(-c4cc(F)cc(F)c4)n3)c2)CC1 [Compound 976, 1-(3,5-difluorophenyl)-N-[3-(4-ethoxy-1-piperidyl)-5-methyl-phenyl]-1,2,4-triazol-3-amine] | – | – | – | – | fold induction at 1 µM [1]: 1 to 10; fold induction at 10 µM [1]: 10 to 100 |
| Fc1cc(F)cc(-n2cnc(Nc3cc(C(F)(F)F)cc(N4CC(N5CCOCC5)C4)n3)n2)c1 [Compound 601, N-[1-(3,5-difluorophenyl)-1,2,4-triazol-3-yl]-6-(3-morpholinoazetidin-1-yl)-4-(trifluoromethyl)pyridin-2-amine] | – | – | 1 to 10 | ≤ 1 | – |
| CC(=O)OCC(COC(C)=O)N1CCN(c2cc(C)cc(Nc3ncn(-c4cc(F)cc(F)c4)n3)c2F)CC1 [Compound 923, [3-acetoxy-2-[4-[3-[[1-(3,5-difluorophenyl)-1,2,4-triazol-3-yl]amino]-2-fluoro-5-methyl-phenyl]piperazin-1-yl]propyl] acetate] | – | – | – | – | fold induction at 1 µM [1]: 10 to 100; fold induction at 10 µM [1]: 1 to 10 |
